From the NIST ThermoML archive (doi:10.1016/j.jct.2016.08.008) come the findings set out here.

This data set can be described thus: activity coefficient (dimensionless); of the first substance listed, at infinite dilution; xn = mol fraction of the nth substance listed. Particulars: 101.33 kPa, Liquid, Chromatography, x1 = 0.

The structures appear in SMILES notation. ± gives the expanded uncertainty stated by the source.

Regarding `Cc1ccccc1C` [1,2-dimethylbenzene] + CCCCCCCCCCCCn1cc[n+](C)c1.O=S(=O)([N-]S(=O)(=O)C(F)(F)F)C(F)(F)F, the activity coefficient by setting is: (318.15 K) 0.812 ± 0.053; (328.15 K) 0.851 ± 0.055; (338.15 K) 0.892 ± 0.057; (348.15 K) 0.93 ± 0.06; (358.15 K) 0.968 ± 0.061; (368.15 K) 1.01 ± 0.06.

As for `Cc1cccc(C)c1` [1,3-dimethylbenzene] + CCCCCCCCCCCCn1cc[n+](C)c1.O=S(=O)([N-]S(=O)(=O)C(F)(F)F)C(F)(F)F, the activity coefficient is, setting by setting: (318.15 K) 0.874 ± 0.056; (328.15 K) 0.918 ± 0.058; (338.15 K) 0.96 ± 0.06; (348.15 K) 1 ± 0.06; (358.15 K) 1.04 ± 0.07; (368.15 K) 1.09 ± 0.07.

As for `Cc1ccc(C)cc1` [1,4-dimethylbenzene] + CCCCCCCCCCCCn1cc[n+](C)c1.O=S(=O)([N-]S(=O)(=O)C(F)(F)F)C(F)(F)F, the activity coefficient (318.15 K) came out at 0.869 ± 0.056; the activity coefficient (328.15 K) was 0.914 ± 0.058; the activity coefficient (338.15 K) worked out at 0.958 ± 0.06; the activity coefficient (348.15 K) is 1 ± 0.06; the activity coefficient (358.15 K) was 1.05 ± 0.07; the activity coefficient (368.15 K) worked out at 1.09 ± 0.07.

In the case of `C1COCCO1` [1,4-dioxane] + CCCCCCCCCCCCn1cc[n+](C)c1.O=S(=O)([N-]S(=O)(=O)C(F)(F)F)C(F)(F)F, the activity coefficient (318.15 K) was 0.474 ± 0.037; the activity coefficient (328.15 K) worked out at 0.499 ± 0.038; the activity coefficient (338.15 K) stood at 0.524 ± 0.039; the activity coefficient (348.15 K) is 0.548 ± 0.04; the activity coefficient (358.15 K) was found to be 0.572 ± 0.041; the activity coefficient (368.15 K) was determined as 0.597 ± 0.042.

For the compound `C=CCCCCCCCC` [1-decene] + CCCCCCCCCCCCn1cc[n+](C)c1.O=S(=O)([N-]S(=O)(=O)C(F)(F)F)C(F)(F)F, the activity coefficient came out at 4.18 ± 0.28 (318.15 K); 4.27 ± 0.29 (328.15 K); 4.36 ± 0.3 (338.15 K); 4.44 ± 0.3 (348.15 K); 4.52 ± 0.31 (358.15 K); 4.6 ± 0.31 (368.15 K).

With `C=CCCCCC` [1-heptene] + CCCCCCCCCCCCn1cc[n+](C)c1.O=S(=O)([N-]S(=O)(=O)C(F)(F)F)C(F)(F)F, the activity coefficient came out at 2.56 ± 0.17 (318.15 K); 2.62 ± 0.18 (328.15 K); 2.68 ± 0.18 (338.15 K); 2.74 ± 0.19 (348.15 K); 2.8 ± 0.19 (358.15 K); 2.85 ± 0.19 (368.15 K).

Consider `C#CCCCCC` [1-heptyne] + CCCCCCCCCCCCn1cc[n+](C)c1.O=S(=O)([N-]S(=O)(=O)C(F)(F)F)C(F)(F)F, for which the activity coefficient came to 1.47 ± 0.1 (318.15 K); 1.53 ± 0.1 (328.15 K); 1.59 ± 0.11 (338.15 K); 1.65 ± 0.11 (348.15 K); 1.7 ± 0.11 (358.15 K); 1.76 ± 0.12 (368.15 K).

For the compound `C#CCCCC` [1-hexyne] + CCCCCCCCCCCCn1cc[n+](C)c1.O=S(=O)([N-]S(=O)(=O)C(F)(F)F)C(F)(F)F, the activity coefficient reads like this: (318.15 K) 1.25 ± 0.08; (328.15 K) 1.3 ± 0.08; (338.15 K) 1.35 ± 0.09; (348.15 K) 1.4 ± 0.09; (358.15 K) 1.45 ± 0.1; (368.15 K) 1.49 ± 0.1.

For the compound `CCC[N+](=O)[O-]` [1-nitropropane] + CCCCCCCCCCCCn1cc[n+](C)c1.O=S(=O)([N-]S(=O)(=O)C(F)(F)F)C(F)(F)F, the activity coefficient (318.15 K) is 0.567 ± 0.041; the activity coefficient (328.15 K) turned out to be 0.582 ± 0.041; the activity coefficient (338.15 K) amounted to 0.596 ± 0.042; the activity coefficient (348.15 K) amounted to 0.609 ± 0.043; the activity coefficient (358.15 K) was determined as 0.621 ± 0.043; the activity coefficient (368.15 K) came out at 0.634 ± 0.044.

On to `C#CCCCCCC` [1-octyne] + CCCCCCCCCCCCn1cc[n+](C)c1.O=S(=O)([N-]S(=O)(=O)C(F)(F)F)C(F)(F)F, for which the activity coefficient (318.15 K) is 1.74 ± 0.12; the activity coefficient (328.15 K) is 1.8 ± 0.12; the activity coefficient (338.15 K) was determined as 1.87 ± 0.13; the activity coefficient (348.15 K) turned out to be 1.93 ± 0.13; the activity coefficient (358.15 K) stood at 1.99 ± 0.14; the activity coefficient (368.15 K) is 2.06 ± 0.14.

Consider `C=CCCC` [1-pentene] + CCCCCCCCCCCCn1cc[n+](C)c1.O=S(=O)([N-]S(=O)(=O)C(F)(F)F)C(F)(F)F, for which the activity coefficient runs as follows: (318.15 K) 1.82 ± 0.12; (328.15 K) 1.88 ± 0.13; (338.15 K) 1.93 ± 0.13; (348.15 K) 1.99 ± 0.14; (358.15 K) 2.04 ± 0.14; (368.15 K) 2.08 ± 0.14.

For the compound `C#CCCC` [1-pentyne] + CCCCCCCCCCCCn1cc[n+](C)c1.O=S(=O)([N-]S(=O)(=O)C(F)(F)F)C(F)(F)F, the activity coefficient reads like this: (318.15 K) 1.07 ± 0.07; (328.15 K) 1.11 ± 0.07; (338.15 K) 1.16 ± 0.07; (348.15 K) 1.2 ± 0.08; (358.15 K) 1.24 ± 0.08; (368.15 K) 1.28 ± 0.08.

As for `CC(C)CC(C)(C)C` [2,2,4-trimethylpentane] + CCCCCCCCCCCCn1cc[n+](C)c1.O=S(=O)([N-]S(=O)(=O)C(F)(F)F)C(F)(F)F, the activity coefficient is 3.59 ± 0.24 (318.15 K); 3.66 ± 0.25 (328.15 K); 3.72 ± 0.25 (338.15 K); 3.79 ± 0.26 (348.15 K); 3.85 ± 0.26 (358.15 K); 3.91 ± 0.27 (368.15 K).

On to `CCC(C)(C)C` [2,2-dimethylbutane] + CCCCCCCCCCCCn1cc[n+](C)c1.O=S(=O)([N-]S(=O)(=O)C(F)(F)F)C(F)(F)F, for which the activity coefficient (318.15 K) came out at 2.83 ± 0.19; the activity coefficient (328.15 K) is 2.89 ± 0.2; the activity coefficient (338.15 K) was determined as 2.95 ± 0.2; the activity coefficient (348.15 K) is 3 ± 0.2; the activity coefficient (358.15 K) turned out to be 3.05 ± 0.21; the activity coefficient (368.15 K) came to 3.1 ± 0.21.

For the compound `CCOC(C)(C)C` [2-ethoxy-2-methylpropane] + CCCCCCCCCCCCn1cc[n+](C)c1.O=S(=O)([N-]S(=O)(=O)C(F)(F)F)C(F)(F)F, the activity coefficient is, setting by setting: (318.15 K) 1.55 ± 0.1; (328.15 K) 1.62 ± 0.11; (338.15 K) 1.69 ± 0.11; (348.15 K) 1.75 ± 0.12; (358.15 K) 1.82 ± 0.12; (368.15 K) 1.88 ± 0.13.

As to `CCC(C)(C)OC` [2-methoxy-2-methylbutane] + CCCCCCCCCCCCn1cc[n+](C)c1.O=S(=O)([N-]S(=O)(=O)C(F)(F)F)C(F)(F)F, the activity coefficient runs as follows: (318.15 K) 1.11 ± 0.07; (328.15 K) 1.17 ± 0.07; (338.15 K) 1.23 ± 0.08; (348.15 K) 1.29 ± 0.08; (358.15 K) 1.35 ± 0.09; (368.15 K) 1.4 ± 0.09.

As for `COC(C)(C)C` [2-methoxy-2-methylpropane] + CCCCCCCCCCCCn1cc[n+](C)c1.O=S(=O)([N-]S(=O)(=O)C(F)(F)F)C(F)(F)F, the activity coefficient is, setting by setting: (318.15 K) 0.93 ± 0.059; (328.15 K) 0.985 ± 0.062; (338.15 K) 1.04 ± 0.07; (348.15 K) 1.09 ± 0.07; (358.15 K) 1.14 ± 0.07; (368.15 K) 1.2 ± 0.08.

With `CC(C)CO` [2-methyl-1-propanol] + CCCCCCCCCCCCn1cc[n+](C)c1.O=S(=O)([N-]S(=O)(=O)C(F)(F)F)C(F)(F)F, the activity coefficient (318.15 K) came out at 1.52 ± 0.1; the activity coefficient (328.15 K) is 1.42 ± 0.09; the activity coefficient (338.15 K) was determined as 1.34 ± 0.09; the activity coefficient (348.15 K) came to 1.26 ± 0.08; the activity coefficient (358.15 K) was determined as 1.19 ± 0.08; the activity coefficient (368.15 K) came to 1.13 ± 0.07.
